Patent US20190269705A1, “METHODS AND MATERIALS FOR TREATING GRAFT VERSUS HOST DISEASE” (Regents of the University of Minnesota, priority 2017, published 2019)
“Also recorded” adds a separate entry of the source.

Legend:
[1] = system: Th17 cells; experiment: CD4 T cells in Th17 skewing conditions, flow cytometry
[2] = system: Th1 cells; experiment: CD4 T cells in Th1 skewing conditions, flow cytometry
[3] = system: cGVHD mice; experiment: In vivo chronic graft versus host disease (cGVHD) treatment; parameters: species or system mouse; conditions: treatment Day 28-56 after transplant; for pulmonary function: DON 1.6 mg/kg EOD IP, metformin 150 mg/kg daily IP
Description: Induction of Graft vs Host Disease (cGVHD) was performed as described elsewhere (see, e.g., Panoskaltsis-Mortari et al., 2007 Am J Respir Crit Care Med. 176(7):713-723). Briefly, mice were lethally irradiated the day before bone marrow (BM) transplant. Mice were dosed with cyclophosphamide (Cytoxan, Bristol Myers Squibb, Seattle Wash.) at 120 mg/kg/day on days −3 and −2. Recipient irradiated mice were transplanted via caudal vein with 10×10^6 T-cell depleted allogeneic marrow with 73.5×10^3 purified splenic T cells from WT or GLS KO mice, or control (no CD4+ T cells). Mice were assessed for lung elasticity, resistance, and compliance at Day 28 by whole body plethysmography using the Flexivent system (Scireq, Montreal, PQ, Canada). Histological assessment of GVHD was assessed as described elsewhere (see, e.g., Blazar et al., 1998 Blood 92(10):3949-3959).
6-Diazo-5-Oxo-L-Norleucine (DON) was administered to mice conditioned with cyclophosphamide (Cytoxan, Bristol Myers Squibb, Seattle Wash.) and total body irradiation.
To determine if inhibiting GLS can improve cGVHD, DON (with or without metformin) was administered to mice that were transplanted with WT T cell depleted bone marrow with WT purified splenic T cells beginning on day 28 after transplant.

[4] = system: stimulated T cells; experiment: Oxygen Consumption Rate (Seahorse) of stimulated CD4 T cells; format: cell-based, mouse; conditions: CD4 cells stimulated on CD3/CD28; 1 μM CB839, 5 μM UK5099 injected separately or in combination
Description: Experiments were carried out on Agilent Seahorse XF96 bioanalyzer (Agilent). Briefly, wild type CD4+ cells were isolated as previous and activated for 3 days on CD3/CD28 as previously described, or skewed to Th1 and Th17 subsets as described above. T cells were spun onto XF96 Cell-Tak (BD Bioscience, Cat #: 354240) coated plates and rested in Seahorse XF RPMI 1640 media supplemented with glutamine, sodium pyruvate, and glucose. For immediate metabolic response, CB839 and UK5099 were injected separately or in combination, and OCR and ECAR measured.
Experiments were carried out on Agilent Seahorse XF96 bioanalyzer (Agilent). Briefly, wild type CD4+ cells were isolated as previous and activated for 3 days on αCD3/CD28 coated plates as previously described, or skewed to Th1 and Th17 subsets as described above. T cells were isolated and spun onto XF96 Cell-Tak (BD Bioscience, Cat #: 354240) coated plates and rested in Seahorse XF RPMI 1640 media supplemented with glutamine, sodium pyruvate, and glucose. For immediate metabolic response, 1 μM CB839 and 5 μM UK5099 (Cat #: PZ0160-5MG) were injected separately or in combination, and OCR and ECAR measured. For activation response, 1 uM CB839 was injected into IL-7 maintained naïve CD4+ T cells in seahorse medium and allowed to incubate for 20 minutes, followed by soluble αCD3/CD28 injection.

[5] = Th17, CB839 + cell-permeable α-KG analog
[6] = Th1, CB839 + 1.5 mM cell-permeable α-KG analog

CCOC(=O)CCNc1cc(N2CCc3ccccc3CC2)nc(-c2ccccn2)n1 [GSKJ4]
cytokine production ([1]; Th17, day five, JMJD3 inhibitor): increased cytokine production in Th1 but not Th17 cells | cytokine production ([2]; Th1, day five, JMJD3 inhibitor): increased cytokine production

[N-]=[N+]=CC(=O)CC[C@H](N)C(=O)O [DON, 6-Diazo-5-Oxo-L-Norleucine]
GC B cell frequency [3]: decreased GC B cell frequency; also recorded: decrease GC B cell frequencies; also recorded: reduced GC B cells | TFH frequency [3]: increased TFH frequency | TFR frequencies [3]: increased TFR frequencies | TFR:TFH ratios [3]: improved TFR:TFH ratios | percentage of lymphocytes [3]: reduced the percentage of lymphocytes; also recorded: reduces lymphocytes | pulmonary function [3]: improve pulmonary functions

COC(=O)CCC(=O)C(=O)OC [DMaKG, dimethyl-2-oxoglutarate]
IL17 production of CB839-treated Th17 cells [1, 5]: unchanged or further decreased | RORγt of CB839-treated Th17 cells [1, 5]: unchanged or further decreased | IFNγ production of CB839-treated Th1 cells [2, 6]: rectified | Tbet expression of CB839-treated Th1 cells [2, 6]: rectified | IFNγ production of CB839-treated Th1 cells ([2]; Th1, CB839 + 1.5 mM cell-permeable α-KG analog, listed as DM2OG): reduced IFNγ production of CB839-treated to control levels | cytokine production in Th1 cells, by itself ([2]; Th1, α-KG analog alone): did not reduce cytokine production

CN(C)C(=N)N=C(N)N [metformin]
pulmonary function [3]: improved pulmonary function

N#C/C(=C\c1cn(-c2ccccc2)c2ccccc12)C(=O)O [UK5099]
oxygen consumption (T cell respiration) [4]: neither UK5099 nor CB839 were sufficient on their own to reduce T cell respiration; also recorded: neither UK5099 nor CB839 were sufficient to reduce T cell respiration alone

CO[C@H]1C[C@@H]2CC[C@@H](C)[C@@](O)(O2)C(=O)C(=O)N2CCCC[C@H]2C(=O)O[C@H]([C@H](C)C[C@@H]2CC[C@@H](O)[C@H](OC)C2)CC(=O)[C@H](C)/C=C(\C)[C@@H](O)[C@@H](OC)C(=O)[C@H](C)C[C@H](C)/C=C/C=C/C=C/1C [rapamycin]
effect on control Th1 cells ([2]; rapamycin added on day 3 after activation): no effect

CC(=O)N[C@@H](CS)C(=O)O [NAC, N-acetyl cysteine]
H3K27 trimethylation ([1]; GLS-deficient (CB839) Th17 cells + NAC): restored | expression of IL17 ([1]; Th17, NAC alone): modestly reduced | expression of RORγt ([1]; Th17, NAC alone): modestly reduced | expression of RORγt ([1]; Th17, NAC combined with CB839): partially restored to control levels | production of IL17 ([1]; Th17, NAC combined with CB839): partially restored to control levels | IFNγ secretion ([2]; Th1, NAC alone): decreasing IFNγ secretion | production of IFNγ ([2]; Th1, NAC combined with CB839): did not, however, increase | H3K27 trimethylation ([2]; Th1 cells + NAC): no effect
